One series relates to Jurkat. The series is described as follows: Immunosuppressive activity in human Jurkat cells assessed as inhibition of PHA-phorbol myristate acetate induced beta-galactosidase activity at 21.5 uM. In kind it is functional, cell-based.
Series [1] deals with Human immunodeficiency virus 1. The series is described as follows: Antiviral activity against HIV1 subtype B WEJO infected in human PBMC assessed as inhibition of viral replication by ELISA. In kind it is functional, organism-based. Conditions: Human immunodeficiency virus 1, subtype B WEJO. In general terms: An ELISA detects its analyte on a solid surface through an enzyme-linked reagent.

The test system of series [2] is Human immunodeficiency virus 1. The series is described as follows: Antiviral activity against APV, ATV, IDV, LPV, NFV, RTV, SQV, AZT, ddI, 3TC, d4T-resistant HIV-1 MDR1385 infected in human PBMC assessed as inhibition of viral replication by ELISA. The conditions noted are these: Human immunodeficiency virus 1, MDR1385. The series is classed as functional, organism-based.

Series [3] deals with Human immunodeficiency virus 1. The series is described as follows: Antiviral activity against HIV1 subtype A 92RW016 infected in human PBMC assessed as inhibition of viral replication by ELISA. In kind it is functional, organism-based. The conditions noted are these: Human immunodeficiency virus 1, subtype A 92RW016.
Another series relates to PBMC. Kind of series: Cytotoxicity against human PBMC at 0.83 uM by MTT assay. In kind it is cell-based.
The next series has as its system Rattus norvegicus. Kind of series: Immunosuppressive activity in Sprague-Dawley rat […] model assessed as percent T lymphocytes at 25 mg/kg, po administered once daily for 28 days by flow cytometry. The series is classed as functional. Background: In flow cytometry, cells or beads pass a laser one at a time.
The subject of series [4] is Human immunodeficiency virus 1. Kind of series: Antiviral activity against HIV1 subtype O BCF01 infected in human PBMC assessed as inhibition of viral replication by ELISA. The series is classed as functional, organism-based. Conditions: Human immunodeficiency virus 1, subtype O BCF01.

pIC50: −log10 of the molar value. Calls of active or inactive are those of the source. No cut-off for these calls is given here.

As to `C/C=C/C[C@@H](C)[C@@H](O)[C@H]1C(=O)N[C@@H](CC)C(=O)N(C)[C@H](C)C(=O)N(CC)[C@@H](C(C)C)C(=O)N[C@@H](C(C)C)C(=O)N(C)[C@@H](CC(C)C)C(=O)N[C@@H](C)C(=O)N[C@H](C)C(=O)N(C)[C@@H](CC(C)C)C(=O)N(C)[C@@H](CC(C)C)C(=O)N(C)[C@@H](C(C)C)C(=O)N1C` [ALISPORIVIR], the inhibition result in the series on Jurkat was “Active”. Also, the pIC50 in series [1] is 7.82; in series [2], 7.24; in series [3], 8.10; in series [4], 5.20. For the same compound, the results for the Activity result with PBMC and in the series on Rattus norvegicus were “Non-toxic” and 53.4%, respectively.

Broadly, the pIC50 is −log10 of the IC50, conventionally taken in molar units.
